Literature values, collected in patent publication US20240158423A1, “TWO-COMPARTMENT BIPOLAR MEMBRANE ELECTRODIALYSIS OF SALTS OF AMINO ACIDS” (MONSANTO TECHNOLOGY LLC, priority 2021, published 2024).
Where two headings read alike, the source gives them in different places.

- solubility (in water at a temperature of 10° C.): less than 4 g IDA/100 g H2O
- solubility (in water at a temperature of 60° C.): approximately 14 g IDA/100 g H2O
SMILES: O=C(O)CNCC(=O)O [IDA, iminodiacetic acid]
